This is an account of results in US20130225508A1, “PEPTIDE CAPABLE OF BINDING TO IMMUNOGLOBULIN” (priority 2010, published 2013).

One assay has as its system IL-1β in plasma. As to the kind of experiment: IL-1β in plasma of adjuvant arthritis rats (ELISA). The assay is classed as in vivo, rat. To be noted: day 21 post-adjuvant. As to the method:
(§1) TNF-α and IL-1β in plasma were measured in a double-point method using the TNF-α ELISA kit (Lbis® TNF-α-rat) and the IL-1β ELISA kit (Quantikine® Rat IL-1β/IL-1F2).
(§2) On day 21 post-adjuvant, the animals were subjected to autopsy, and plasma was prepared to measure IL-1β and TIN-α concentrations in plasma. In all the groups for which measurements were made, the concentration of TNF-α was below the detection limit (8 pg/mL).
In general terms: ELISA stands for enzyme-linked immunosorbent assay.

The next assay relates to TNF-α in plasma. As to the kind of experiment: TNF-α in plasma of adjuvant arthritis rats (ELISA). It is filed as in vivo, rat. To be noted: day 21 post-adjuvant. As to the method: as §1, §2
Where [1] appears, read: 0.15 mg/kg oral, pre-administered group.

On to `CN(Cc1cnc2nc(N)nc(N)c2n1)c1ccc(C(=O)N[C@@H](CCC(=O)O)C(=O)O)cc1` [Methotrexate], for which the “Concentrations of IL-1β in plasma” value in the assay on IL-1β in plasma (0.15 mg/kg oral from day 10) was found to be 22.6 ± 11.3 pg/mL; in the assay with IL-1β in plasma (setting [1]), 18.4 ± 4.2 pg/mL. Also, the “Concentrations of TNF-α in plasma” value with TNF-α in plasma (0.15 mg/kg oral from day 10) and with TNF-α in plasma (setting [1]) was “N.D (N.D.: below detection limit)” each time.
